# Test system: WT Mtb Erdman strain
# Test: Microplate Alamar Blue Assay (MABA), Mtb growth inhibition
# Format: cell-based, Mycobacterium tuberculosis
# Conditions: Mycobacterium tuberculosis, ERDMAN, 168 h, Middlebrook 7H9 media, 7 days at 37° C. in 5% CO2
row,SMILES,IC50
1,"Cc1cc2c(NCCCc3ccc(C(C)(C)C)cc3)nc(C(F)(F)F)nc2s1 [Example 206, N-(3-(4-(tert-butyl)phenyl)propyl)-6-methyl-2-(trifluoromethyl) thieno[2,3-d] pyrimidin-4-amine]",260 nM
2,"Cc1cc2c(NCCCCc3ccc(Br)cc3)nc(-c3ccoc3)nc2s1 [Example 207, N-(4-(4-bromophenyl)butyl)-2-(furan-3-yl)-6-methylthieno[2,3-d]pyrimidin-4-amine]",350 nM
3,"Cc1cc2c(NCCCN3CCN(c4ccccc4)CC3)nc(-c3ccoc3)nc2s1 [Example 208, 2-(furan-3-yl)-6-methyl-N-(3-(4-phenylpiperazin-1-yl)propyl)thieno[2,3-d]pyrimidin-4-amine]",3200 nM
4,"Cc1cc2c(NCCN3CCN(c4ccccc4)CC3)nc(-c3ccoc3)nc2s1 [Example 209, 2-(furan-3-yl)-6-methyl-N-(2-(4-phenylpiperazin-1-yl)ethyl)thieno[2,3-d]pyrimidin-4-amine]",4900 nM
5,"Cc1cc2c(NCCC(=O)N3CCN(c4ccccc4)CC3)nc(-c3ccoc3)nc2s1 [Example 210, 3-((2-(furan-3-yl)-6-methylthieno[2,3-d]pyrimidin-4-yl)amino)-1-(4-phenylpiperazin-1-yl)propan-1-one]",8200 nM
6,"Cc1cc2c(NCCCc3ccc(Br)cc3F)nc(-c3ccoc3)nc2s1 [Example 211, N-(3-(4-bromo-2-fluorophenyl)propyl)-2-(furan-3-yl)-6-methylthieno[2,3-d]pyrimidin-4-amine]",120 nM
7,"Clc1nc(NCCCc2ccccc2)c2ccsc2n1 [Example 218, 2-chloro-N-(3-phenylpropyl)thieno [2,3-d]pyrimidin-4-amine]",6400 nM
8,"COc1ccc(CCCNc2nc(Cl)nc3sccc23)cc1 [Example 219, 2-chloro-N-(3-(4-methoxyphenyl)propyl)thieno[2,3-d]pyrimidin-4-amine]",> 7700 nM
9,"Fc1ccc([C@@H]2C[C@H]2Nc2nc(Cl)nc3sccc23)cc1F [Example 220, 2-chloro-N-((1R,2S)-2-(3,4-difluorophenyl)cyclopropyl)thieno[2,3-d]pyrimidin-4-amine]",> 7200 nM
10,"Fc1ccc([C@@H]2C[C@H]2Nc2nc(Cl)nc3scnc23)cc1F [Example 221, 5-chloro-N-((1R,2S)-2-(3,4-difluorophenyl)cyclopropyl)thiazolo [5,4-d]pyrimidin-7-amine]",> 10000 nM
11,"Cc1cc2c(N[C@@H]3C[C@H]3c3ccc(F)c(F)c3)nc(Cl)nc2s1 [Example 222, 2-chloro-N-((1R,2S)-2-(3,4-difluorophenyl)cyclopropyl)-6-methylthieno[2,3-d]pyrimidin-4-amine]",1500 nM
12,"Cc1cc2c(NCCCc3ccc(OC(F)(F)F)cc3)nc(Cl)nc2s1 [Example 223, 2-chloro-6-methyl-N-(3-(4-(trifluoromethoxy)phenyl)propyl) thieno[2,3-d] pyrimidin-4-amine]",1700 nM
13,"Cc1cc2c(NCCCc3ccccc3)nc(Cl)nc2s1 [Example 224, 2-chloro-6-methyl-N-(3-phenylpropyl)thieno [2,3-d]pyrimidin-4-amine]",1600 nM
14,"Cc1cc2c(NC/C=C/c3ccccc3)nc(Cl)nc2s1 [Example 225, 2-chloro-N-cinnamyl-6-methylthieno[2,3-d]pyrimidin-4-amine]",390 nM
15,"Cc1cc2c(N[C@@H]3C[C@H]3c3ccc(F)c(F)c3)nc(OCC(F)(F)F)nc2s1 [Example 226, N-((1R,2S)-2-(3,4-difluorophenyl)cyclopropyl)-6-methyl-2-(2,2,2-trifluoroethoxy)thieno [2,3-d]pyrimidin-4-amine]",1200 nM
16,"Cc1cc2c(N[C@@H]3C[C@H]3c3ccc(F)c(F)c3)nc(C#N)nc2s1 [Example 227, 4-(((1R,2S)-2-(3,4-difluorophenyl)cyclopropyl)amino)-6-methylthieno[2,3-d]pyrimidine-2-carbonitrile]",3300 nM
17,"Cc1cccc(CCCNc2nc(C(F)(F)F)nc3sc(C)cc23)c1 [Example 228, 6-methyl-N-(3-(m-tolyl)propyl)-2-(trifluoromethyl)thieno [2,3-d]pyrimidin-4-amine]",1500 nM
18,"COC(=O)c1cccc(CCCNc2nc(C(F)(F)F)nc3sc(C)cc23)c1 [Example 229, methyl 3-(3-((6-methyl-2-(trifluoromethyl)thieno [2,3-d]pyrimidin-4-yl)amino)propyl) benzoate]",5900 nM
19,"Cc1cc2c(NCCCc3cc4ccccc4s3)nc(C(F)(F)F)nc2s1 [Example 230, N-(3-(benzo [b]thiophen-2-yl)propyl)-6-methyl-2-(trifluoromethyl) thieno [2,3-d]pyrimidin-4-amine]",2500 nM
20,"Cc1cc2c(NCCCc3cccc(F)c3)nc(C(F)(F)F)nc2s1 [Example 231, N-(3-(3-fluorophenyl)propyl)-6-methyl-2-(trifluoromethyl)thieno [2,3-d]pyrimidin-4-amine]",1500 nM
21,"Cc1cc2c(NCCCc3ccc4ccccc4c3)nc(C(F)(F)F)nc2s1 [Example 232, 6-methyl-N-(3-(naphthalen-2-yl)propyl)-2-(trifluoromethyl) thieno[2,3-d] pyrimidin-4-amine]",1300 nM

row,SMILES,IC50
1,"Cc1cc2c(NCCCc3ccc(OC4CC4)cc3)nc(C(F)(F)F)nc2s1 [Example 233, N-(3-(4-cyclopropoxyphenyl)propyl)-6-methyl-2-(trifluoromethyl) thieno[2,3-d] pyrimidin-4-amine]",2100 nM
2,"Cc1cc2c(NCCCc3ccc(C4CCCCC4)cc3)nc(C(F)(F)F)nc2s1 [Example 234, N-(3-(4-cyclohexylphenyl)propyl)-6-methyl-2-(trifluoromethyl) thieno[2,3-d] pyrimidin-4-amine]",1800 nM
3,"Cc1cc2c(NCCCc3ccc(N)cc3)nc(C(F)(F)F)nc2s1 [Example 235, N-(3-(4-aminophenyl)propyl)-6-methyl-2-(trifluoromethyl) thieno[2,3-d]pyrimidin-4-amine]",> 9900 nM
4,"CCCc1ccc(CCCNc2nc(C(F)(F)F)nc3sc(C)cc23)cc1 [Example 236, 6-methyl-N-(3-(4-propylphenyl)propyl)-2-(trifluoromethyl) thieno [2,3-d]pyrimidin-4-amine]",1400 nM
5,"Cc1cc2c(NCCCc3ccc(C4CC4)cc3)nc(C(F)(F)F)nc2s1 [Example 237, N-(3-(4-cyclopropylphenyl)propyl)-6-methyl-2-(trifluoromethyl) thieno[2,3-d] pyrimidin-4-amine]",1800 nM
6,"Cc1cc2c(NCCCc3ccc(C#N)cc3)nc(C(F)(F)F)nc2s1 [Example 238, 4-(3-((6-methyl-2-(trifluoromethyl)thieno[2,3-d]pyrimidin-4-yl)amino)propyl) benzonitrile]",> 10000 nM
7,"Cc1cc2c(NCCCc3cccs3)nc(C(F)(F)F)nc2s1 [Example 239, 6-methyl-N-(3-(thiophen-2-yl)propyl)-2-(trifluoromethyl) thieno[2,3-d] pyrimidin-4-amine]",> 6800 nM
8,"Cc1cc2c(NCCCc3cc(F)cc(C(F)(F)F)c3)nc(C(F)(F)F)nc2s1 [Example 240, N-(3-(3-fluoro-5-(trifluoromethyl)phenyl)propyl)-6-methyl-2-(trifluoromethyl) thieno[2,3-d] pyrimidin-4-amine]",2900 nM
9,"COc1cccc(CCCNc2nc(C(F)(F)F)nc3sc(C)cc23)c1 [Example 241, N-(3-(3-methoxyphenyl)propyl)-6-methyl-2-(trifluoromethyl) thieno[2,3-d] pyrimidin-4-amine]",3100 nM
10,"Cc1cc2c(NCCCc3ccc(S(C)(=O)=O)cc3)nc(C(F)(F)F)nc2s1 [Example 242, 6-methyl-N-(3-(4-(methylsulfonyl)phenyl)propyl)-2-(trifluoromethyl) thieno[2,3-d] pyrimidin-4-amine]",> 10000 nM
11,"Cc1cc2c(NCCCc3cccc(C#N)c3)nc(C(F)(F)F)nc2s1 [Example 243, 3-(3-((6-methyl-2-(trifluoromethyl)thieno[2,3-d]pyrimidin-4-yl)amino)propyl) benzonitrile]",> 8000 nM
12,"Cc1ccc(CCCNc2nc(C(F)(F)F)nc3sc(C)cc23)cc1 [Example 244, 6-methyl-N-(3-(p-tolyl)propyl)-2-(trifluoromethyl) thieno[2,3-d] pyrimidin-4-amine]",1000 nM
13,"Cc1cc2c(NCCCc3ccc(Cl)cc3)nc(C(F)(F)F)nc2s1 [Example 245, N-(3-(4-chlorophenyl)propyl)-6-methyl-2-(trifluoromethyl) thieno[2,3-d] pyrimidin-4-amine]",1800 nM
14,"COC(=O)c1ccc(CCCNc2nc(C(F)(F)F)nc3sc(C)cc23)cc1 [Example 246, methyl 4-(3-((6-methyl-2-(trifluoromethyl)thieno[2,3-d]pyrimidin-4-yl)amino)propyl) benzoate]",> 10000 nM
15,"Cc1cc2c(NCCCc3ccccc3C)nc(C(F)(F)F)nc2s1 [Example 247, 6-methyl-N-(3-(o-tolyl)propyl)-2-(trifluoromethyl) thieno[2,3-d] pyrimidin-4-amine]",1400 nM
16,"Cc1cc2c(NCCCc3cccc(Cl)c3)nc(C(F)(F)F)nc2s1 [Example 248, N-(3-(3-chlorophenyl)propyl)-6-methyl-2-(trifluoromethyl) thieno[2,3-d] pyrimidin-4-amine]",1800 nM
17,"Cc1cc2c(NCCCc3ccccc3Cl)nc(C(F)(F)F)nc2s1 [Example 249, N-(3-(2-chlorophenyl)propyl)-6-methyl-2-(trifluoromethyl)thieno [2,3-d]pyrimidin-4-amine]",4000 nM
18,"CCc1nc(NCCCc2ccc(N(C)C)cc2)c2cc(C)sc2n1 [Example 250, N-(3-(4-(dimethylamino)phenyl)propyl)-2-ethyl-6-methylthieno [2,3-d]pyrimidin-4-amine]",200 nM
19,"CCc1nc(NCCCc2ccc(C)cc2)c2cc(C)sc2n1 [Example 251, 2-ethyl-6-methyl-N-(3-(p-tolyl)propyl)thieno [2,3-d]pyrimidin-4-amine]",100 nM
20,"CCc1nc(NCCCc2ccc(OC(F)(F)F)c(F)c2)c2cc(C)sc2n1 [Example 252, 2-ethyl-N-(3-(3-fluoro-4-(trifluoromethoxy)phenyl)propyl)-6-methylthieno[2,3-d]pyrimidin-4-amine]",600 nM

# Reference: US20240279236A1, “COMPOUNDS AND METHODS OF TREATING TUBERCULOSIS” (Fimbrion Therapeutics, Inc., priority 2021, published 2024)
